Measurements reported in ChEMBL document CHEMBL3880441, “Irreversible covalent inhibitors of the GTPASE K-RAS G12C” (2014).

Tested on: GTPase KRas (Homo sapiens), P01116 [G12C]
Assay: Binding affinity to His-tagged KRAS (1 to 169 residues) G12C mutant (unknown origin) at 10 to 100 uM after 24 hrs by mass spectrometric method

Row | SMILES | Activity [%]
1 | C=Cc1ccc(S(=O)(=O)NC[C@H]2C[C@@H]3O[C@H](COCc4ccccc4)[C@@H](OCc4ccccc4)[C@@H]3O2)cc1 | > 15
2 | C=CS(=O)(=O)NC[C@@H]1C[C@@H]2O[C@H](COCc3ccccc3)[C@@H](OCc3ccccc3)[C@@H]2O1 | 10 to 15
3 | C=Cc1ccc(S(=O)(=O)NC[C@@H]2C[C@@H]3O[C@H](COCc4ccccc4)[C@@H](OCc4ccccc4)[C@@H]3O2)cc1 | 10 to 15
4 | C=Cc1ccccc1S(=O)(=O)NC[C@H]1C[C@@H]2O[C@H](CO)[C@@H](OCc3ccccc3)[C@@H]2O1 | 10 to 15
5 | C=Cc1ccc(S(=O)(=O)NC[C@@H]2C[C@@H]3O[C@H](CO)[C@@H](OCc4ccccc4)[C@@H]3O2)cc1 | 5 to 10
6 | C=Cc1ccccc1S(=O)(=O)NCCNc1ccc2ccccc2c1 | 10 to 15
7 | C=Cc1ccc(S(=O)(=O)NC[C@H]2C[C@@H]3O[C@H](CO)[C@@H](OCc4ccccc4)[C@@H]3O2)cc1 | 10 to 15
8 | C=Cc1cccc(S(=O)(=O)NC[C@H]2C[C@@H]3O[C@H](CO)[C@@H](OCc4ccccc4)[C@@H]3O2)c1 | 5 to 10
9 | C=Cc1ccccc1S(=O)(=O)NC[C@H]1C[C@@H]2O[C@H](COCc3ccccc3)[C@@H](OCc3ccccc3)[C@@H]2O1 | 10 to 15
10 | C=Cc1ccccc1S(=O)(=O)NC[C@@H]1C[C@@H]2O[C@H](CO)[C@@H](OCc3ccccc3)[C@@H]2O1 | > 15
11 | C=Cc1ccc(S(=O)(=O)NCCOc2ccc3ccccc3c2)cc1 | 10 to 15
12 | C=Cc1ccccc1S(=O)(=O)NCCNc1cccc2ccccc12 | > 15
13 | C=CC(=O)NC[C@H]1C[C@@H]2O[C@H](COCc3ccccc3)[C@@H](OCc3ccccc3)[C@@H]2O1 | 0.5 to 5
14 | C=Cc1ccccc1S(=O)(=O)NCCOc1cccc2ccccc12 | 10 to 15
15 | C=Cc1ccc(S(=O)(=O)NCCNc2cccc3ccccc23)cc1 | 10 to 15
16 | C=Cc1ccc(S(=O)(=O)NCCNc2ccc3ccccc3c2)cc1 | 5 to 10

Row | SMILES | Activity [%]
17 | C=Cc1cccc(S(=O)(=O)NCCOc2ccc3ccccc3c2)c1 | 10 to 15
18 | C=CS(=O)(=O)NCCOc1cccc2ccccc12 | 10 to 15
19 | C=Cc1cccc(S(=O)(=O)NC[C@@H]2C[C@@H]3O[C@H](COCc4ccccc4)[C@@H](OCc4ccccc4)[C@@H]3O2)c1 | > 15
20 | C=CS(=O)(=O)NCCOc1ccc2ccccc2c1 | 10 to 15
21 | C=CS(=O)(=O)NC[C@H]1C[C@@H]2O[C@H](CO)[C@@H](OCc3ccccc3)[C@@H]2O1 | 5 to 10
22 | C=Cc1ccccc1S(=O)(=O)NC[C@@H]1C[C@@H]2O[C@H](COCc3ccccc3)[C@@H](OCc3ccccc3)[C@@H]2O1 | 10 to 15
23 | C=CS(=O)(=O)NCCNc1cccc2ccccc12 | 10 to 15
24 | C=Cc1cccc(S(=O)(=O)NC[C@@H]2C[C@@H]3O[C@H](CO)[C@@H](OCc4ccccc4)[C@@H]3O2)c1 | 10 to 15
25 | C=CS(=O)(=O)NCCNc1ccc2ccccc2c1 | 5 to 10
26 | C=Cc1ccccc1S(=O)(=O)NCCOc1ccc2ccccc2c1 | 5 to 10
27 | C=Cc1cccc(S(=O)(=O)NC[C@H]2C[C@@H]3O[C@H](COCc4ccccc4)[C@@H](OCc4ccccc4)[C@@H]3O2)c1 | 5 to 10
28 | C=Cc1cccc(S(=O)(=O)NCCOc2cccc3ccccc23)c1 | 5 to 10
29 | C=CS(=O)(=O)NC[C@H]1C[C@@H]2O[C@H](COCc3ccccc3)[C@@H](OCc3ccccc3)[C@@H]2O1 | 10 to 15
30 | C=CC(=O)NC[C@@H]1C[C@@H]2O[C@H](CO)[C@@H](OCc3ccccc3)[C@@H]2O1 | 0.5 to 5
31 | C=CC(=O)NC[C@H]1C[C@@H]2O[C@H](CO)[C@@H](OCc3ccccc3)[C@@H]2O1 | 0.5 to 5
32 | C=CC(=O)NC[C@@H]1C[C@@H]2O[C@H](COCc3ccccc3)[C@@H](OCc3ccccc3)[C@@H]2O1 | 0.5 to 5
